Experimental data as given in ChEMBL document CHEMBL1143621, “Identification and structure-activity relationship of phenolic acyl hydrazones as selective agonists for the estrogen-related orphan nuclear receptors ERRbeta and ERRgamma” (J Med Chem, 2005).

Target: T1, Estrogen-related receptor gamma (Homo sapiens, UniProt P62508)
T1 sequence (P62508 whole entry): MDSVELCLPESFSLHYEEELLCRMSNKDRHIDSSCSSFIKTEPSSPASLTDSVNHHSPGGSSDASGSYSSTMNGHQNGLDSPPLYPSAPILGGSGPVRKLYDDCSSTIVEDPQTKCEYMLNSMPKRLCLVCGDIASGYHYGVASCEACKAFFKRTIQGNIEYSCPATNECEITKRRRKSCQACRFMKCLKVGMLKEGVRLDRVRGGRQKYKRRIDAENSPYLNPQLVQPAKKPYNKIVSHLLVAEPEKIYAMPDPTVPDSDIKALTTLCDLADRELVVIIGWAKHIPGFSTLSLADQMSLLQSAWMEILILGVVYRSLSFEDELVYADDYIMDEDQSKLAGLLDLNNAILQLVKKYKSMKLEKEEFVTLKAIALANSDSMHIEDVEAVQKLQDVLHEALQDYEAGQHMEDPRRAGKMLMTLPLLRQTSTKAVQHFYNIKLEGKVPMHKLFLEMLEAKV
Test: Estrogen-Related Receptor gamma activity in FRET assay; i.a.=inactive at 3 uM; call rule not given here
Type: functional

EC50 | SMILES
Not Active | CCN(CC)c1ccc(/C=N/NC(=O)c2ccc(O)cc2)c(O)c1
Not Active | CCN(CC)c1ccc(/C=N/NS(=O)(=O)c2ccc(O)cc2)cc1
Not Active | CC(C)c1ccc(C(=O)NNC(=O)c2ccc(O)cc2)cc1
Not Active | CC(C)(C)Oc1ccc(/C=N/NC(=O)c2ccc(O)cc2)cc1
Not Active | CCN(CC)c1ccc(/C=N/NC(=O)c2ccc(F)cc2)cc1

Target: T1, Estrogen-related receptor gamma
Test: Estrogen-Related Receptor gamma activity in FRET assay
Type: functional

SMILES | EC50 [µM]
CCN(CC)c1ccc(/C=N/NC(=O)c2ccc(N)cc2)cc1 | 0.63
CCN(CC)c1ccc(/C=N/NC(=O)c2ccccc2)cc1 | 1.6

Further lines, results first:

EC50 [µM] | SMILES
0.5 | CCN(CC)c1ccc(/C(C)=N/NC(=O)c2ccc(O)cc2)cc1
0.13 | CCN(CC)c1ccc(/C=N/NC(=O)c2ccc(O)cc2)cc1

Target: T1, Estrogen-related receptor gamma
Test: Inhibition of [3H]4-OHT binding to Estrogen-Related Receptor gamma

IC50 [µM] | SMILES
0.66 | CCN(CC)c1ccc(/C=N/NC(=O)c2ccc(O)cc2)cc1
